For one experiment, the system named is calnexin. The experiment in a line: Calnexin expression by Western blotting (control). The format is cell-based. As for the experimental part: (§1) The culture medium was removed by vacuuming (for attached cells) or by low speed centrifugation (for suspension cells) for 5-7 minutes at room temperature. The cells were wasedh twith PBS, spun at 1200 rpm and the cell pellets were kept on ice. 300 μl/2.0×10^7 cells of ice cold lysis buffer was added with freshly added protease inhibitors. Cell pellets were gently resuspended and incubated on ice for at least 30 min, vortexed a few times during incubation. Cell lysate was spun at 14,000 rpm for 2-5 min at 4° C. The supernatant was transferred to a new microfuge tube and the pellet was discarded. An aliquot of sample was mixed with an equal volume of 2× sample buffer (InVitrogen), and stored at −80° C. Protein concentration was determined by using “BCA protein assay reagent kit” from Pierce.
Protein samples (in sample buffer) were boiled for 1-3 minutes and put on ice. Same amount of protein were loaded on the NuPage gel (InVitrogen). […]
To further examine the putative protein trafficking effects of AVP 893, other proteins in this pathway were tested in vitro in B16 and other cell lines. […] Other cell lines were tested for their expression of GS28 and nicastrin and found to respond similarly to drug, although quantitative differences were evident. […]
For orientation: A western blot detects proteins with antibodies after separation by electrophoresis.

The test system of the next experiment is GS28. The experiment can be described thus: GS28 expression by Western blotting. The format is cell-based. The note with it: for GS28 expression: 100 ng/ml. As for the experimental part:
as §1
Protein samples (in sample buffer) were boiled for 1-3 minutes and put on ice. Same amount of protein were loaded on the NuPage gel (InVitrogen). After the electrophoresis was complete, proteins were transferred from the gel to a PVDF membrane using the electro-blotting apparatus from InVitrogen; the voltage was set to 25 for 2-3 hr. Block non-specific binding by incubating membrane with 5% milk (in PBS, 0.1% tween 20) for at least 30 min at room temperature or overnight at 4° C. The blocked membrane was incubated with primary antibody (See TABLE 2) diluted in 5% milk for 1 hour at room temperature. Optimal antibody dilution depends on the company, the amount of protein. Dilutions of 1:1000 were generally used for the primary antibodies from Santa Cruz. The membrane was washed with PBS, 0.1% tween 3-4 times 5 mins. The membrane was incubated for 30-60 minutes at room temperature with horseradish peroxidase (HRP) conjugated secondary antibody diluted in 5% milk. We usually used 1:4000 dilution for the secondary antibody from Santa Cruz. The membrane was washed 3-4 times with PBS, 0.1% tween, each time 15 minutes. The detection solutions A and B were mixed in a ratio 40:1 and Pipetted onto the membrane, and incubated for 5 min at RT. A sheet of Hyper film ECL was placed on the top of the membrane in the dark and exposed for 1 min, or adjust accordingly.
To further examine the putative protein trafficking effects of AVP 893, other proteins in this pathway were tested in vitro in B16 and other cell lines. The effect of AVP 893 on cellular proteins was corroborated in B16 cells and extended to include a time-course (FIG. 17). B16-F10 tumor cells were seeded in T75 flasks at 20% confluence and cultured overnight. AVP 893 (100 ng/ml) was added to several flasks and one flask of cells was harvested at several time points following addition of compound. Lysates were prepared, separated by electrophoresis, and probed with antibody as described above in the general Western blotting protocol. Drug effects on GS28 and nicastrin paralleled each other and were progressively stronger with longer drug incubations. […] Other cell lines were tested for their expression of GS28 and nicastrin and found to respond similarly to drug, although quantitative differences were evident. Tumor cell lines found to respond similarly to AVP 893 include CAK1, SF295, PC3, MOLT4, Neuro2a, and RBL (FIGS. 18, 19, and 20). For the experiment shown in FIG. 18, LOX, CAKI, and 3T3 cell lines were treated as described for FIG. 17. For the results shown in FIG. 19, SF295, PC3, MOLT-4, and Neuro2a cells were treated as described for FIG. 17. For the results shown in FIG. 20, LOX, 3T3, and RBL cell lines were treated with varying concentrations of AVP 893 as described for FIG. 17. The effects on LOX cells were less evident. […] Levels of calnexin, a resident ER protein used as a control, were unchanged in drug-treated cells.

The next experiment relates to HSV. The experiment can be described thus: Guinea pig topical HSV model. Particulars: data not shown. The format is in vivo. As for the experimental part:
Representative viruses from families likely to utilize the golgi were tested. […] (data not shown).

In another experiment the test system is NCI H-460. The experiment can be described thus: Inhibition of tumor cell proliferation in vitro (SRB total protein). The format is cell-based. Particulars: Homo sapiens. Here is the method:
(§2) For a typical screening experiment, cells are inoculated into 96 well microtiter plates in 100 μl at plating densities ranging from 5,000 to 40,000 cells/well depending on the doubling time of individual cell lines. After cell inoculation, the microtiter plates are incubated at 37° C., 5% or 10% CO2—depending on the cell line and media—95% air and 100% relative humidity for 24 h prior to addition of experimental drugs. After 24 h, two plates of each cell line are fixed in situ with TCA, to represent a measurement of the cell population for each cell line at the time of drug addition. Following drug addition, the plates are incubated for an additional 48 h at 37° C., 5%/10% CO2, 95% air, and 100% relative humidity. For adherent cells, the assay is terminated by the addition of cold TCA. Cells are fixed in situ by the gentle addition of 50 μl of cold 50% (w/v) TCA (final concentration, 10% TCA) and incubated for 60 minutes at 4° C. The supernatant is discarded, and the plates are washed five times with tap water and air-dried. Sulforhodamine B (SRB) solution (10011) at 0.4% (w/v) in 1% acetic acid is added to each well, and plates are incubated for 10 minutes at room temperature. After staining, unbound dye is removed by washing five times with 1% acetic acid and the plates are air-dried. Bound stain is subsequently solubilized with 10 mM trizma base, and the absorbance is read on an automated plate reader at a wavelength of 515 nm. For suspension cells, the methodology is the same except that the assay is terminated by fixing settled cells at the bottom of the wells by gently adding 50 μl of 80% TCA (final concentration, 16% TCA). Using the seven absorbance measurements [time zero, control growth, and test growth in the presence of drug at the five concentration levels], the percentage growth is calculated at each of the drug concentrations levels.
(§3) Brefeldin A was tested by the NCI for inhibition of tumor cell proliferation in the 60-cell screen. The NCI 60-cell screen was performed essentially as described for FIG. 9. Data available from the NCI database for Brefeldin A was compared with more recent AVP 893 data. […] Several tumor cell lines were cultured in the presence of either AVP 893 or Brefeldin A for about 72 hours before assessing proliferation response by measuring total protein (SRB), as described for FIG. 9. The results of the head-to-head comparisons performed in-house also show substantial variation in the relative proliferative responses of cells to Brefeldin A and AVP 893 in vitro (TABLE 3).

Another experiment deals with Hs578T. The experiment is described as above. The format is cell-based. Particulars: Homo sapiens, Hs-578T. As for the experimental part:
as §2, §3

In brackets after ≈: the same amount, converted by molar mass. Where two headings read alike, the source gives them in different places.

Regarding `O=C(Nc1ccc(-c2nc3cc(NC(=O)C4CCCCC4)ccc3[nH]2)cc1)C1CCCCC1` [AVP 893], the levels of calnexin entry in the experiment on calnexin (drug-treated cell lines) is recorded as “unchanged”. Moreover, the calnexin expression entry in the experiment with calnexin (stimulated BALB/c spleen cells, 100 ng/ml, 20 hours) was “minimally affected”. For the same compound, the “expression of GS28 and GS15 compared with monensin, Brefeldin A, rapamycin” value in the experiment with GS28 (3T3 cells, 200 ng/ml, 18 hour) is “decreased the expression of GS28 and GS15 more markedly than the other three agents”. Also, the “IC50 for GS28 expression” value in the experiment on GS28 (3T3 cells, overnight) was 10 and 100 ng/ml. In the experiment with GS28 (3T3 fibroblast cell line), the “levels of GS28” value was “virtually eliminated”. The GS28 expression entry in the experiment on GS28 (B16 cells, two days of culture) was “complete loss of GS28”; with GS28 (stimulated BALB/c spleen cells, 20 hours), “abrogated”. Further, the “GS28 or nicastrin expression” value in the experiment with GS28 (resistant line H-460, overnight) was “little effect”. Also, in the experiment on HSV, the “viral activity in vivo” value is listed as “may inhibit viral activity in vivo”. The IC50 is more than 2000 ng/mL in the experiment with NCI H-460 (NCI-H460, column Avanir, read-out: IC50 (ng/ml), Avanir); 400 ng/mL (≈ 0.9 µM) in the experiment with NCI H-460 (NCI-H460, column NCI, read-out: IC50 (ng/ml), NCI); more than 3000 ng/mL in the experiment with NCI H-460 (NCI-H460, in-house head-to-head, about 72 hours, SRB, read-out: IC50); 2 ng/mL (≈ 0.0045 µM) with Hs578T (column Avanir, read-out: IC50 (ng/ml), Avanir); less than 10 ng/mL in the experiment on Hs578T (column NCI, read-out: IC50 (ng/ml), NCI); less than 1 ng/mL in the experiment with Hs578T (in-house head-to-head, about 72 hours, SRB, read-out: IC50).

The values above are taken from patent publication US20050256179A1, “Selective pharmacologic inhibition of protein trafficking and related methods of treating human diseases” (priority 2003, published 2005).
